Measured values reported in ChEMBL document CHEMBL3244165, “Improved synthesis and in vitro antiviral activities of 5-cyanouridine and 5-cyano-2'-deoxyuridine” (J Med Chem, 1977).

test system: Vaccinia virus; test: Antiviral activity against Vaccinia virus infected in primary rabbit kidney cells assessed as inhibition of virus-induced cytopathogenicity; type: functional, Orthopoxvirus vaccinia

Structure (SMILES)	ID50
N#Cc1cn([C@@H]2O[C@H](CO)[C@@H](O)[C@H]2O)c(=O)[nH]c1=O	>3.7 ×10⁻⁴ M
N#Cc1cn([C@H]2C[C@H](O)[C@@H](CO)O2)c(=O)[nH]c1=O	1.6 ×10⁻⁵ M
O=c1[nH]c(=O)n([C@H]2C[C@H](O)[C@@H](CO)O2)cc1Br [BROXURIDINE]	3.2 ×10⁻⁷ M
O=c1[nH]c(=O)n([C@H]2C[C@H](O)[C@@H](CO)O2)cc1Cl [CHLORODEOXYURIDINE]	7.6 ×10⁻⁷ M
O=c1[nH]c(=O)n([C@H]2C[C@H](O)[C@@H](CO)O2)cc1F [FLOXURIDINE]	4 ×10⁻⁷ M
O=c1[nH]c(=O)n([C@H]2C[C@H](O)[C@@H](CO)O2)cc1I [IDOXURIDINE]	1.1 ×10⁻⁶ M
O=c1[nH]c(=O)n([C@H]2C[C@H](O)[C@@H](CO)O2)cc1C(F)(F)F [TRIFLURIDINE]	3.3 ×10⁻⁷ M
Nc1ncnc2c1ncn2[C@@H]1O[C@H](CO)[C@@H](O)[C@@H]1O [VIDARABINE]	1.4 ×10⁻⁶ M
